Data from PubChem BioAssay (NCI).
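48-hour exposure; five concentrations; linearly interpolated endpoints. Abbreviation: GI50, concentration required for 50% inhibition of growth. At the TGI there is no net growth.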

Experiments:
Experiment in all cases: growth of human tumour cells (NCI), 48 h
SK-MEL-28 melanoma = tested on: SK-MEL-28 melanoma
LOX IMVI melanoma = tested on: LOX IMVI melanoma
CCRF-CEM leukemia = tested on: CCRF-CEM leukemia
MOLT-4 leukemia = tested on: MOLT-4 leukemia
SR leukemia = tested on: SR leukemia
NCI-H23 lung = tested on: NCI-H23 lung
HS 578T breast = tested on: HS 578T breast
NCI-H522 lung = tested on: NCI-H522 lung
SN12C renal = tested on: SN12C renal
RXF 393 renal = tested on: RXF 393 renal

Row | Compound | GI50 (SK-MEL-28 melanoma) [µM] | TGI (SK-MEL-28 melanoma) [µM] | GI50 (LOX IMVI melanoma) [µM] | TGI (LOX IMVI melanoma) [µM] | GI50 (CCRF-CEM leukemia) [µM] | TGI (CCRF-CEM leukemia) [µM] | GI50 (MOLT-4 leukemia) [µM] | TGI (MOLT-4 leukemia) [µM] | GI50 (SR leukemia) [µM] | TGI (SR leukemia) [µM] | GI50 (NCI-H23 lung) [µM] | TGI (NCI-H23 lung) [µM] | GI50 (HS 578T breast) [µM] | TGI (HS 578T breast) [µM] | GI50 (NCI-H522 lung) [µM] | TGI (NCI-H522 lung) [µM] | GI50 (SN12C renal) [µM] | TGI (SN12C renal) [µM] | TGI (RXF 393 renal) [µM] | GI50 (RXF 393 renal) [µM]
1 | NCCC(O)(P(=O)(O)O)P(=O)(O)O | > 100 | > 100 | > 100 | > 100 | > 100 | > 100 | > 100 | > 100 | > 100 | > 100 | > 100 | > 100 | > 100 | > 100 | > 100 | > 100 | > 100 | > 100 |  | 
2 | CN(C)CCCc1c[nH]c2ccccc12 |  | > 100 |  | > 100 |  | > 100 |  | > 100 |  | > 100 |  | > 100 |  | > 100 |  | > 100 |  | > 100 | > 100 | 
3 | CS(=O)(=O)Nc1ccc(Nc2c3ccccc3nc3ccccc23)cc1 |  | 20.7 |  | 13.9 |  | 26.4 |  | 10.4 |  | 3.83 |  | 25.8 |  | 49.3 |  | 13.7 |  | 17.1 | 23.3 | 
4 | Nc1c(C(=O)Nc2ccccc2Cl)sc2nc3c(cc12)CCCCCC3 | 10.2 | > 100 | 5.7 | > 100 |  |  |  |  | 2.18 | > 100 | 8.83 | > 100 | 2.9 | 14.6 | 13.6 | 91.1 | 9.11 | > 100 | 3.98 | 1.85
5 | COc1ccc2c(c1)CCC1C2CC[C@]2(C)/C(=N/OC(=O)Cc3ccccc3)CCC12 (stereo not given in full) | 24.1 | 78.1 | 18.5 | 37.2 | 13.6 | 49.9 | 17.2 | 35.8 | 14.2 | 33.3 | 16.2 | 32.7 | 28.6 | 70 | 12.2 | 32.8 | 20.6 | 43.6 | 47.9 | 23.3
6 | CCC(=C/[C@H](C)C/C=C/C(C)=C/[C@@H](C)C(=O)[C@@H](C)[C@H](O)[C@@H](C)CC)/C=C/[C@H]1OC(=O)C=C[C@H]1C | < 0.01 | 1.11 | < 0.01 | 1.11 | < 0.01 | 9.07 | < 0.01 |  | < 0.01 |  | < 0.01 | 1.5 | < 0.01 | 0.438 | < 0.01 | < 0.01 | < 0.01 | 1.36 | < 0.01 | < 0.01
7 | COc1ccc(-c2ccc(C3CC(c4ccc(Cl)cc4)=NN3)o2)c([N+](=O)[O-])c1 (stereo not given) | > 100 | > 100 | > 100 | > 100 | > 100 | > 100 | > 100 | > 100 | > 100 | > 100 | > 100 | > 100 | > 100 | > 100 | > 100 | > 100 |  |  | > 100 | > 100
8 | COc1cc2nc(Nc3cccc(F)c3)nc(Nc3cc(C)[nH]n3)c2cc1OC | 1.77 | 3.2 | 1.72 | 3.11 | 1.11 | > 100 | 1.89 | 5.76 | 2.27 | 8.36 | 1.69 | 3.27 | 1.86 | 4.01 | 1.92 | 4.94 | 1.89 | 3.79 | 3.22 | 1.81
9 | Nc1ncnc2c1ncn2C1OC(CO)=CC1O (stereo not given) |  | > 37.5 |  | > 37.5 |  | > 37.5 |  | > 37.5 |  | > 37.5 |  | > 37.5 |  | > 37.5 |  | > 37.5 |  | > 37.5 | > 37.5 | 
10 | Cn1cc(C2=C(c3cn(CCN)c4ccccc34)C(=O)NC2=O)c2ccccc21 | 7.68 | > 25 | 6.05 | > 22.8 | 6.05 | > 22.7 | 6.48 | 19.9 | 4.8 | 17 | 5.15 | 15.1 | 4.32 | 20.2 | 6.01 | 17.2 | 5.87 | > 25 | 10.1 | 3.74
11 | NS(=O)(=O)c1ccc(CCN=C=S)cc1 | 2.59 | 7.28 | 1.92 | 3.72 | 2.65 | 7.45 | 3.05 | > 100 | 2.44 | > 100 | 2.62 | 7.54 | 3.21 | 15.5 | 1.37 | 3.57 | 2.17 | 5.14 | 3.18 | 1.62
12 | CCCCCCCC[N+](C)(CCCCCCCC)CCCCCCCC | 0.528 | 1.79 | 0.247 | 0.709 | 0.189 | 0.525 | 0.324 | 1.37 | 0.165 | 0.408 | 0.267 | 1.13 | 0.471 | 2.99 | 0.223 | 0.746 | 0.337 | 1.24 | 1.49 | 0.39
13 | COc1ccc(/C=C/c2n[nH]c3ccc(N4CCOC4=O)cc23)cc1 | 3.39 | 12.4 | 2.52 | 27.7 |  |  | 1.46 | 9.54 | 0.461 | 3.03 | 1.79 | 6.18 | 3.23 | 9.59 | 1.87 | 14.5 | 2.14 | > 100 | 3.8 | 1.87
14 | COC1=CC(c2ccc[nH]2)=N/C1=C\c1ccc[nH]1 | 0.774 | 9.35 |  |  | 0.0231 | 14 | 0.0317 | 33.7 | 0.0222 | 1.31 | 2.1 | 19.1 | 0.292 | 3.56 | 0.284 | 2.68 | 0.433 | 19.7 | 2.7 | 0.378
15 | O=C(/C=C\c1ccc(Cl)cc1Cl)c1cccs1 |  | 42.3 |  |  |  | 73.6 |  | > 100 |  | > 100 |  | 44 |  | 75.3 |  | 50.3 |  | 32.1 | 44.3 | 
